Consider 17 compounds from patent US7060718B2, “Arylsulfonanilide ureas” (Amgen Inc., priority 1998, dated 2006).

The subject of one data set is HeLa cells. Kind of data set: Tumor cell growth arrest in culture, Alamar Blue assay (HeLa). The format is cell-based. The note with it: Homo sapiens, concentration at which total growth inhibition occurred, 72 hours of treatment, triplicate. As for the experimental part:
(§1) The ability of test compounds to arrest the growth of tumor cells in culture was evaluated using HeLa cells, derived from a human cervical adenocarcinoma, and obtained from the American Type Culture Collection (ATCC, Rockville, Md.). Cells were grown in culture in the usual way. Test compounds were dosed in triplicate at concentrations ranging from 5 μM to 50 μM, and the cellular growth rate was calculated by harvesting the cells after 72 hours of treatment and measuring their metabolic activity using an Alamar Blue assay (Biosource International, Camarillo, Calif.). The degree of metabolic activity in the culture is proportional to the number of living cells. See, Ahmed et al., J. Immunol. Methods 1994, 170, 211. The change in growth rate for cells treated with test compounds was normalized to the growth of untreated cells and a plot of normalized cellular growth vs. compound concentration was made. The concentration at which total growth inhibition (TGI) occurred was determined. Compounds were similarly evaluated for cell growth inhibition using MCF-7/ ADR cells.

The subject of the next data set is MCF-7/ADR cells. In words: Cell growth inhibition (MCF-7/ADR), evaluated similarly. The format is cell-based. Particulars: Homo sapiens, NCI/ADR-RES, concentration at which total growth inhibition occurred. As for the experimental part:
as §1

Bounds are passed on as bounds.

For the compound `COc1ccc(NS(=O)(=O)c2c(F)c(F)c(F)c(F)c2F)cc1NC(=O)Nc1nncs1` [Compound 20], the IC (TGI) in the data set on HeLa cells and with MCF-7/ADR cells was 5 to 40 µM throughout.
By melting point is commonly meant the temperature, or range, at which the solid turns liquid. In turn, `COc1ccc(NS(=O)(=O)c2c(F)c(F)c(F)c(F)c2F)cc1NC(=O)n1nccc1N` [Compound 7] came in with a melting point of 140 to 144 °C. For the same compound, the IC (TGI) in the data set with HeLa cells was under 5 µM. Moreover, the IC (TGI) in the data set on MCF-7/ADR cells is under 5 µM.
`COc1ccc(NS(=O)(=O)c2c(F)c(F)c(F)c(F)c2F)cc1NC(=O)NC(CO)CO` [Compound 12]: the IC (TGI) in the data set on HeLa cells and with MCF-7/ADR cells was over 40 µM each time.
Take `COc1ccc(NS(=O)(=O)c2c(F)c(F)c(F)c(F)c2F)cc1NC(=O)NCC(N)=O` [Compound 11]: the IC (TGI) in the data set on HeLa cells and in the data set with MCF-7/ADR cells was over 40 µM each time.
`COc1ccc(NS(=O)(=O)c2c(F)c(F)c(F)c(F)c2F)cc1NC(=O)NCc1ccco1` [Compound 8] displayed a melting point of 208 °C. Further, the IC (TGI) with HeLa cells was under 5 µM. In the data set with MCF-7/ADR cells, this compound showed an IC (TGI) of under 5 µM.
For `COc1ccc(NS(=O)(=O)c2c(F)c(F)c(F)c(F)c2F)cc1NC(=O)NCC(O)CO` (centres unmarked) [Compound 10], the IC (TGI) in the data set with HeLa cells and in the data set with MCF-7/ADR cells was 5 to 40 µM throughout.
As to `COc1ccc(NS(=O)(=O)c2c(F)c(F)c(F)c(F)c2F)cc1NC(=O)N1CCOCC1` [Compound 9], the IC (TGI) in the data set on HeLa cells and in the data set on MCF-7/ADR cells was 5 to 40 µM throughout.
Turning to `COCCNC(=O)Nc1cc(NS(=O)(=O)c2c(F)c(F)c(F)c(F)c2F)ccc1OC` [Compound 21], the IC (TGI) in the data set on HeLa cells is 5 to 40 µM; with MCF-7/ADR cells, over 40 µM.
On to `COc1ccc(NS(=O)(=O)c2c(F)c(F)c(F)c(F)c2F)cc1NC(=O)NCCO` [Compound 13], for which the IC (TGI) in the data set on HeLa cells is 5 to 40 µM; in the data set with MCF-7/ADR cells, over 40 µM.
Turning to `COc1ccc(NS(=O)(=O)c2c(F)c(F)c(F)c(F)c2F)cc1NC(N)=O` [Compound 5], the melting point turned out to be 226 °C. The same compound showed an IC (TGI) in the data set with HeLa cells of under 5 µM. Besides, the IC (TGI) in the data set on MCF-7/ADR cells is under 5 µM.
On to `COc1ccc(NS(=O)(=O)c2c(F)c(F)c(F)c(F)c2F)cc1NC(=O)Nc1nccs1` [Compound 17], for which the IC (TGI) in the data set with HeLa cells and with MCF-7/ADR cells was over 40 µM in each case.
With `COc1ccc(NS(=O)(=O)c2c(F)c(F)c(F)c(F)c2F)cc1NC(=O)Nc1ccccc1` [Compound 16], the IC (TGI) in the data set on HeLa cells is 5 to 40 µM; in the data set on MCF-7/ADR cells, over 40 µM.
In the same order, the values of `COc1ccc(NS(=O)(=O)c2c(F)c(F)c(F)c(F)c2F)cc1NC(=O)n1ncnc1N` [Compound 18] are under 5 µM and under 5 µM.
`CCOC(=O)CNC(=O)Nc1cc(NS(=O)(=O)c2c(F)c(F)c(F)c(F)c2F)ccc1OC` [Compound 6] had a melting point of 164 to 170 °C. The IC (TGI) in the data set on HeLa cells was over 40 µM. The compound also had an IC (TGI) in the data set with MCF-7/ADR cells of over 40 µM.
Take `COc1ccc(NS(=O)(=O)c2c(F)c(F)c(F)c(F)c2F)cc1NC(=O)N(CCO)CCO` [Compound 15]: the IC (TGI) in the data set with HeLa cells and in the data set on MCF-7/ADR cells was over 40 µM each time.
Regarding `COc1ccc(NS(=O)(=O)c2c(F)c(F)c(F)c(F)c2F)cc1NC(=O)NCCCO` [Compound 14], the IC (TGI) was 5 to 40 µM in the data set with HeLa cells and over 40 µM in the data set on MCF-7/ADR cells.
In the same order, the values of `COc1ccc(NS(=O)(=O)c2c(F)c(F)c(F)c(F)c2F)cc1NC(=O)Nc1nnn[nH]1` [Compound 19] are under 5 µM and 5 to 40 µM.
